Results: patent US20040033276A1, “Coating composition for cereals having a preventive or treating effect on diabetes and cereals coated thereby” (priority 2002, published 2004)

Test system: α-glucosidase
Assay: Inhibition of α-glucosidase by extracts of herb medicine
Assay type: biochemical
Conditions: 0.1 ml extract
Method: Inhibitory activities of various herb extracts on the activity of α-glucosidase, which catalyzes the digestion of a polysaccharide to monosaccharides, were examined as follows. Extracts of various herb medicines listed in Table 4 below were prepared in accordance with the method of Reference Example 2. Added to 0.27 ml of 2 mM substrate (p-nitrophenyl-α-D-glucopyranoside, Sigma, U.S.A.) were 0.03 ml of α-glucosidase(Sigma, U.S.A.), 0.2 ml of 20 mM phosphate buffer (pH 7.0) and 0.1 ml of respective extracts obtained above. The resulting mixture was incubated in a 37° C. thermostat(Vision Science, Korea) for 30 minutes, and 0.5 ml of 1 M glycine-NaOH (pH 9.0) was added thereto to stop the reaction. […] Negative control was treated with distilled water instead of the herb extract, and positive control, with acarbose(Glucobay™, Bayer) and DNJ (Deoxynojirimycin, Dep. Seruculture & Entomology, NIAST), which are representative α-glucosidase inhibitors. Activities of the respective extracts for inhibiting α-glucosidase were calculated by the following equation and the result is shown in Table 4. Inhibition (%)=(1−Absorbance of a sample/Absorbance of the negative control)×100

Q: What does the source list for OC[C@H]1NC[C@H](O)[C@@H](O)[C@@H]1O [DNJ, Deoxynojirimycin]?
A: Inhibition (%) (relative to negative control): 80.79%; Absorbance (405 nm, 37° C., 30 minutes): 0.7641 ± 0.0021
